Article PMC12369603, “Functional characterization of antennae-enriched chemosensory protein 4 in emerald ash borer, Agrilus planipennis” (PeerJ, 2025)
Values joined by “and” are separate entries in the source; they are usually repeats but may differ in a detail not shown here. Identical values can stand only once. Like-named read-outs stand apart in the source and are kept apart here.

Experiments:
[1] = target: T1, recombinant AplaCSP4 (Agrilus planipennis chemosensory protein 4) (Agrilus planipennis, UniProt A0A1W4XLL0); test: biochemical; format: binding; conditions: for binding to AplaCSP4 (in words): discussion of fluorescence competitive binding results; for Competitive binding capability(%) / activity at 2 µM / activity at 4 µM / activity at 6 µM / activity at 8 µM / activity at 10 µM / activity at 12 µM: three replicate columns, 100 at 0 μM
Description: Specifically, the binding affinities of AplaCSP4 for 43 volatile organic compounds were determined using F-380 fluorescence spectrophotometer (Tianjin, China) with a 10 nm slits and a 1 cm light path. These 43 substances are common green leaf volatiles, among which 16 volatiles originate from the ash tree. […]

Mythimna separata = test system: Mythimna separata; set-up: method as in Younas et al., 2022; conditions: ref Younas et al., 2022; cited from earlier work
[2] = target: T1, recombinant AplaCSP4 (Agrilus planipennis chemosensory protein 4); test: Binding of fluorescent probe 1-NPN to AplaCSP4 (titration); conditions: 2 µM protein in 50 mM Tris–HCl pH 7.4 titrated with 1-NPN 2-16 µM; read-out: binding affinity constant (KD) between 1-NPN and AplaCSP4
Description: Fluorescence competitive binding assays were conducted according to the method described by [Wang et al. (2021)]. Specifically, the binding affinities of AplaCSP4 for 43 volatile organic compounds were determined using F-380 fluorescence spectrophotometer (Tianjin, China) with a 10 nm slits and a 1 cm light path. These 43 substances are common green leaf volatiles, among which 16 volatiles originate from the ash tree. As the fluorescent probe, N-phenyl-1-naphthylamine (1-NPN) was excited at the wavelength of 337 nm, and emission spectra were recorded between 390 and 530 nm. […]

Phyllotreta cruciferae = test system: Phyllotreta cruciferae; set-up: method as in Cáceres et al., 2016; Sun et al., 2016; conditions: ref Cáceres et al., 2016, Sun et al.; cited from earlier work
Cnaphalocrocis medinalis = test system: Cnaphalocrocis medinalis; set-up: method as in Cáceres et al., 2016; Sun et al., 2016; conditions: ref Cáceres et al., 2016, Sun et al.; cited from earlier work
[3] = ligand concentration 2 μM, 2 µM
[4] = ligand concentration 4 μM, 4 µM
[5] = ligand concentration 6 μM, 6 µM
[6] = ligand concentration 8 μM, 8 µM
[7] = ligand concentration 10 μM, 10 µM
[8] = ligand concentration 12 μM, 12 µM
[9] = pH 7.4, ligand concentration 2 μM, read-out: Competitive binding capability(%)
[10] = pH 7.4, ligand concentration 4 μM, read-out: Competitive binding capability(%)
[11] = pH 7.4, ligand concentration 6 μM, read-out: Competitive binding capability(%)
[12] = pH 7.4, ligand concentration 8 μM, read-out: Competitive binding capability(%)
[13] = pH 7.4, ligand concentration 10 μM, read-out: Competitive binding capability(%)
[14] = pH 7.4, ligand concentration 12 μM, read-out: Competitive binding capability(%)
[15] = read-out: K D ±SE (dissociation constant)
[16] = AplaCSP4 and 1-NPN each 2 µM, ligands with minimal binding single experiment, read-out: K D ±SE, “–” = no binding (IC50 >16 μM, KD not calculated)
[17] = pH 7.4, read-out: Competitive binding capability(%), ligand concentration 2 μM
[18] = pH 7.4, read-out: Competitive binding capability(%), ligand concentration 4 μM
[19] = pH 7.4, read-out: Competitive binding capability(%), ligand concentration 6 μM
[20] = pH 7.4, read-out: Competitive binding capability(%), ligand concentration 8 μM
[21] = pH 7.4, read-out: Competitive binding capability(%), ligand concentration 10 μM
[22] = pH 7.4, read-out: Competitive binding capability(%), ligand concentration 12 μM

T1 sequence (A0A1W4XLL0 entry or part of it): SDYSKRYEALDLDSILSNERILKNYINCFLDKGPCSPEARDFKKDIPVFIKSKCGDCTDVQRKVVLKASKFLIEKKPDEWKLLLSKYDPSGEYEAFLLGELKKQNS

For `C=CC(C)(O)CCC=C(C)CCC=C(C)C` (mixture of isomers) [Nerolidol], the “binding to AplaCSP4 (in words)” value [1] was “particularly high binding affinity”, the “Competitive binding capability(%)” value [1, 3] was 51.463% and 50.752% and the “Competitive binding capability(%)” value [1, 4] was 34.5446% and 32.1031%. For the same compound, the “Competitive binding capability(%)” value [1, 5] was 25.4151% and 25.0577%, the “Competitive binding capability(%)” value [1, 6] was 20.9595% and 20.5391% and the “Competitive binding capability(%)” value [1, 7] was 17.6278% and 17.3179%. The “Competitive binding capability(%)” value [1, 8] was 15.4258% and 15.6099%, the activity at 2 µM [1, 9] was 49.2% and the activity at 4 µM [1, 10] was 35.3%. For the same compound, the activity at 6 µM [1, 11] was 25.6%, the activity at 8 µM [1, 12] was 21.1% and the activity at 10 µM [1, 13] was 17.9%. The activity at 12 µM [1, 14] was 16.1%, the Kd [1, 15] was 1.38 ± 0.03 µM and the attractive activity (Mythimna separata) was “attractive activity”.
Compound `c1ccc(Nc2cccc3ccccc23)cc1` [1-NPN, N-phenyl-1-naphthylamine] has a Kd [2] of 9.36 µM.
With `C=CC(=C)CCC=C(C)C` [Myrcene] the “binding to AplaCSP4 (in words)” value [1] was “binding capabilities”, the “Competitive binding capability(%)” value [1, 3] was 93.6207% and 95.326% and the “Competitive binding capability(%)” value [1, 4] was 85.4868% and 89.2675%. The “Competitive binding capability(%)” value [1, 5] was 76.2875% and 80.8277%, the “Competitive binding capability(%)” value [1, 6] was 67.6403% and 72.2022% and the “Competitive binding capability(%)” value [1, 7] was 61.2276% and 66.6056%. For the same compound, the “Competitive binding capability(%)” value [1, 8] was 55.297% and 60.7518%, the activity at 2 µM [1, 9] was 93.4% and the activity at 4 µM [1, 10] was 87%. For the same compound, the activity at 6 µM [1, 11] was 75.3%, the activity at 8 µM [1, 12] was 66.9% and the activity at 10 µM [1, 13] was 61.1%. For the same compound, the activity at 12 µM [1, 14] was 54.9% and the Kd [1, 15] was 9.9 ± 0.34 µM.
In the case of `CCCCCCCCC=O` [Nonanal], the IC50 [1, 16] is reported as > 16 µM.
In the case of `C=CC(C)=CCC=C(C)C` [Ocimene], the Kd ([1]; AplaCSP4 and 1-NPN each 2 µM, 50 mM Tris–HCl pH 7.4, KD = IC50/(1+[1-NPN]/K1-NPN), mean of three experiments, read-out: K D ±SE (dissociation constant)) is reported as 10.4 ± 1.11 µM, the “binding to AplaCSP4 (in words)” value [1] is reported as “binding capabilities” and the “Competitive binding capability(%)” value ([1]; ligand concentration 2 μM) is reported as 93.4067% and 90.0634% and 92.7212%. For the same compound, the “Competitive binding capability(%)” value ([1]; ligand concentration 4 μM) was 88.4911% and 81.8854% and 85.2152%, the “Competitive binding capability(%)” value ([1]; ligand concentration 6 μM) was 82.5386% and 75.7215% and 76.2043% and the “Competitive binding capability(%)” value ([1]; ligand concentration 8 μM) was 75.2984% and 68.1994% and 63.8599%. The “Competitive binding capability(%)” value ([1]; ligand concentration 10 μM) was 69.6898% and 60.3453% and 57.9099% and the “Competitive binding capability(%)” value ([1]; ligand concentration 12 μM) was 63.4481% and 55.0655% and 52.0519%.
With `CCCCCCCC=O` [Octanal] the IC50 [1, 16] was > 16 µM.
In the case of `N#CCc1ccccc1` [Phenylacetonitrile], the IC50 [1] is reported as > 16 µM.
In the case of `CCCCCCCCCCCCCC` [Tetradecane], the IC50 [1, 16] is reported as > 16 µM.
For `CCCCC=O` [Valeraldehyde], the IC50 [1, 16] was > 16 µM.
For `CC/C=C\CCO` [cis-3-Hexen-1-ol], the IC50 [1] was > 16 µM.
In the case of `CC/C=C\CCOC(C)=O` [cis-3-Hexenyl acetate], the IC50 [1, 16] is reported as > 16 µM.
With `CC/C=C\CCOC(=O)c1ccccc1` [cis-3-Hexenyl benzoate] the “Competitive binding capability(%)” value [1, 3] was 79.0652% and 72.7217%, the “Competitive binding capability(%)” value [1, 4] was 62.6633% and 59.3339% and the “Competitive binding capability(%)” value [1, 5] was 52.3441% and 49.0753%. For the same compound, the “Competitive binding capability(%)” value [1, 6] was 45.5407% and 42.369%, the “Competitive binding capability(%)” value [1, 7] was 38.572% and 36.9717% and the “Competitive binding capability(%)” value [1, 8] was 34.5851% and 32.8537%. The activity at 2 µM [1, 9] was 76.1%, the activity at 4 µM [1, 10] was 61.8% and the activity at 6 µM [1, 11] was 51.7%. For the same compound, the activity at 8 µM [1, 12] was 44.5%, the activity at 10 µM [1, 13] was 39.2% and the activity at 12 µM [1, 14] was 35%. The Kd [1, 15] was 4.29 ± 0.18 µM.
With `CC/C=C\CCOC(=O)C(C)C` [cis-3-Hexenyl isobutyrate] the IC50 [1, 16] was > 16 µM.
With `CC/C=C\CCOC(=O)CC(C)C` [cis-3-Hexenyl isovalerate] the IC50 [1, 16] was > 16 µM.
In the case of `CCCCCCCC` [n-Octane], the “Competitive binding capability(%)” value [1, 3] is reported as 86.2111% and 85.0437%, the “Competitive binding capability(%)” value [1, 4] is reported as 71.3083% and 70.0543% and the “Competitive binding capability(%)” value [1, 5] is reported as 57.8901% and 54.2819%. For the same compound, the “Competitive binding capability(%)” value [1, 6] was 46.7227% and 42.7241%, the “Competitive binding capability(%)” value [1, 7] was 38.967% and 35.7057% and the “Competitive binding capability(%)” value [1, 8] was 32.7961% and 31.347%. For the same compound, the activity at 2 µM [1, 17] was 86%, the activity at 4 µM [1, 18] was 67.9% and the activity at 6 µM [1, 19] was 56.4%. For the same compound, the activity at 8 µM [1, 20] was 45%, the activity at 10 µM [1, 21] was 38.2% and the activity at 12 µM [1, 22] was 31.4%. It also gave a Kd [1, 15] of 4.83 ± 0.11 µM.
With `CCCC/C=C/C=O` [trans-2-Heptenal] the IC50 [1, 16] was > 16 µM.
With `CCC/C=C/C=O` [trans-2-Hexenal] the IC50 [1] was > 16 µM.
For `CCC/C=C/COC(C)=O` [trans-2-Hexenyl acetate], the IC50 [1, 16] was > 16 µM.
With `C=C1CC/C=C(\C)CC[C@@H]2[C@@H]1CC2(C)C` [β-Caryophyllene] the IC50 [1] was > 16 µM.
In the case of `CC(=O)/C=C/C1=C(C)CCCC1(C)C` [β-Ionone], the Kd [1] is reported as 4.23 ± 0.07 µM, the “Competitive binding capability(%)” value [1, 3] is reported as 74.4951% and 75.2037% and the “Competitive binding capability(%)” value [1, 4] is reported as 60.2358% and 60.8061%. The “Competitive binding capability(%)” value [1, 5] was 50.2199% and 51.0303%, the “Competitive binding capability(%)” value [1, 6] was 42.8154% and 43.7153% and the “Competitive binding capability(%)” value [1, 7] was 37.3498% and 38.224%. The “Competitive binding capability(%)” value [1, 8] was 33.5198% and 33.2165%, the activity at 2 µM [1, 17] was 75.8% and the activity at 4 µM [1, 18] was 61.2%. For the same compound, the activity at 6 µM [1, 19] was 51.9%, the activity at 8 µM [1, 20] was 45% and the activity at 10 µM [1, 21] was 38.5%. For the same compound, the activity at 12 µM [1, 22] was 34.6%, the repellent activity (Phyllotreta cruciferae) was “repellent activity” and the repellent activity (Cnaphalocrocis medinalis) was “repellent activity”.
With (±)-Citronellal the IC50 [1, 16] was > 16 µM.
